This note sets out measurements from patent publication US8987250B2 (Gilead Sciences, Inc., priority 2012, dated 2015).

By EC50 is commonly meant the concentration giving half of the maximal effect.

The experiment concerns HIV-IIIb. As to the kind of experiment: Test A: Antiviral Assay in MT4 Cells. It counts as cell-based. Particulars: MT-4 cells infected with HIV-IIIb, 5 days of incubation, CellTiter-Glo, read-out: EC50. The protocol: The antiviral properties of a compound of the invention may be determined using Test A described below.
Test A: Antiviral Assay in MT4 Cells
For the antiviral assay utilizing MT-4 cells, 0.4 μL of […] test concentration of 3-fold serially diluted compound in DMSO was added to 40 μL of cell growth medium (RPMI 1640, 10% FBS, 1% penicilline/Streptomycine, 1% L-Glutamine, 1% HEPES) in each well of 384-well assay plates (10 concentrations) in quadruplicate.
One mL aliquots of 2×10e6 MT-4 cells were pre-infected for 1 and 3 hours respectively, @ 37° C. with 25 uL (MT4) or of either cell growth medium (mock-infected) or a fresh 1:250 dilution of an HIV-IIIb concentrated ABI stock (0.004m.o.i. for MT4 cells). Infected and uninfected cells were diluted in cell growth medium and 35 uL of 2000 (for MT4) cells was added to each well of the assay plates.
Assay plates were then incubated in a 37° C. incubator. After 5 days of incubation, […] of 2× concentrated CellTiter-Glo™ Reagent (catalog #G7573, Promega Biosciences, Inc., Madison, Wis.) was added to each well of the assay plate. Cell lysis was carried out by incubating at room temperature for 2-3 min and then chemiluminescence was read using the Envision reader (PerkinElmer). […]
For orientation: Cellular ATP, detected with luciferase, serves as a proxy for viable cell number.

Setting [1] is: Human immunodeficiency virus 1, IIIB, MT4, 120 h, Table 1.

Read-outs that look alike come from different tables or passages of the source.

Take `Cc1cc2nc(N3CCCC3)sc2c(-c2ccc3c4c(ccnc24)CCO3)c1[C@H](OC(C)(C)C)C(=O)O` (atropisomer, axis not shown) [Compound 50, (S)-2-tert-butoxy-2-((S)-7-(2,3-dihydropyrano[4,3,2-de]quinolin-7-yl)-5-methyl-2-(pyrrolidin-1-yl)benzo[d]thiazol-6-yl)acetic acid]: the EC50 (Table 1) came to 52.8 nM.

With `Cc1cc2nc(N3CCCC3)sc2c(-c2ccc3c4c(ccnc24)CCO3)c1[C@H](OC(C)(C)C)C(=O)O` (atropisomer, axis not shown) [Compound 51, (S)-2-tert-butoxy-2-((R)-7-(2,3-dihydropyrano[4,3,2-de]quinolin-7-yl)-5-methyl-2-(pyrrolidin-1-yl)benzo[d]thiazol-6-yl)acetic acid], under “Table 1”, the EC50 worked out at 5250 nM.

`Cc1cc2nc(N3CC(F)(F)C3)sc2c(-c2ccc3c4c(ccnc24)CCO3)c1[C@H](OC(C)(C)C)C(=O)O` (atropisomer, axis not shown) [Compound 52, (S)-2-tert-butoxy-2-((S)-2-(3,3-difluoroazetidin-1-yl)-7-(2,3-dihydropyrano[4,3,2-de]quinolin-7-yl)-5-methylbenzo[d]thiazol-6-yl)acetic acid]: the EC50 (Table 1) was found to be 53.4 nM.

As for `Cc1cc2nc(N3CC(F)(F)C3)sc2c(-c2ccc3c4c(ccnc24)CCO3)c1[C@H](OC(C)(C)C)C(=O)O` (atropisomer, axis not shown) [Compound 53, (S)-2-tert-butoxy-2-((R)-2-(3,3-difluoroazetidin-1-yl)-7-(2,3-dihydropyrano[4,3,2-de]quinolin-7-yl)-5-methylbenzo[d]thiazol-6-yl)acetic acid], the EC50 (Table 1) was 37500 nM.

Take `COC1CN(c2nc3cc(C)c([C@H](OC(C)(C)C)C(=O)O)c(-c4ccc5c6c(ccnc46)CCO5)c3s2)C1` (atropisomer, axis not shown) [Compound 54, (S)-2-tert-butoxy-2-((S)-7-(2,3-dihydropyrano[4,3,2-de]quinolin-7-yl)-2-(3-methoxyazetidin-1-yl)-5-methylbenzo[d]thiazol-6-yl)acetic acid]: for the setting “Table 1”, the EC50 stood at 274 nM.

As to `COC1CN(c2nc3cc(C)c([C@H](OC(C)(C)C)C(=O)O)c(-c4ccc5c6c(ccnc46)CCO5)c3s2)C1` (atropisomer, axis not shown) [Compound 55, (S)-2-tert-butoxy-2-((R)-7-(2,3-dihydropyrano[4,3,2-de]quinolin-7-yl)-2-(3-methoxyazetidin-1-yl)-5-methylbenzo[d]thiazol-6-yl)acetic acid], the EC50 (Table 1) was 53000 nM.

For the molecule `Cc1cc2nc(N3CC(F)C3)sc2c(-c2ccc3c4c(ccnc24)CCO3)c1[C@H](OC(C)(C)C)C(=O)O` (atropisomer, axis not shown) [Compound 56, (S)-2-tert-butoxy-2-((S)-7-(2,3-dihydropyrano[4,3,2-de]quinolin-7-yl)-2-(3-fluoroazetidin-1-yl)-5-methylbenzo[d]thiazol-6-yl)acetic acid], the EC50 under setting [1] was 62.4 nM.

Regarding `Cc1cc2nc(N3CC(C)C3)sc2c(-c2ccc3c4c(ccnc24)CCO3)c1[C@H](OC(C)(C)C)C(=O)O` (atropisomer, axis not shown) [Compound 57, (S)-2-tert-butoxy-2-((S)-7-(2,3-dihydropyrano[4,3,2-de]quinolin-7-yl)-5-methyl-2-(3-methylazetidin-1-yl)benzo[d]thiazol-6-yl)acetic acid], the EC50 under setting [1] stood at 147 nM.

In the case of `Cc1cc2nc(N3CC(S(C)(=O)=O)C3)sc2c(-c2ccc3c4c(ccnc24)CCO3)c1[C@H](OC(C)(C)C)C(=O)O` (atropisomer, axis not shown) [Compound 58, (S)-2-tert-butoxy-2-((S)-7-(2,3-dihydropyrano[4,3,2-de]quinolin-7-yl)-5-methyl-2-(3-(methylsulfonyl)azetidin-1-yl)benzo[d]thiazol-6-yl)acetic acid], the EC50 under setting [1] amounted to 3520 nM.

Regarding `Cc1c([C@H](OC(C)(C)C)C(=O)O)c(-c2ccc3c4c(ccnc24)CCO3)c2sc(N3CCC3)nc2c1F` (atropisomer, axis not shown) [Compound 76, (S)-2-((S)-2-(azetidin-1-yl)-7-(2,3-dihydropyrano[4,3,2-de]quinolin-7-yl)-4-fluoro-5-methylbenzo[d]thiazol-6-yl)-2-tert-butoxyacetic acid], the EC50 under setting [1] was 26 nM.

On to `CCC(C)(C)O[C@H](C(=O)O)c1c(C)cc2nc(N3CCC3)sc2c1-c1ccc2c3c(ccnc13)CCO2` (atropisomer, axis not shown) [Compound 89, (S)-2-((S)-2-(azetidin-1-yl)-7-(2,3-dihydropyrano[4,3,2-de]quinolin-7-yl)-5-methylbenzo[d]thiazol-6-yl)-2-(tert-pentyloxy)acetic acid], for which the EC50 under setting [1] turned out to be 36.6 nM.

On to `Cc1cc2nc(-c3cccc(-c4ccc5c(cnn5C)c4)c3)sc2c(-c2ccc3c4c(ccnc24)CCO3)c1[C@H](OC(C)(C)C)C(=O)O` (atropisomer, axis not shown) [Compound 164], for which the EC50 (Table 1) amounted to 483 nM.

Regarding `Cc1cc2nc(-c3cccc(-c4ccc5c(cnn5C)c4)c3)sc2c(-c2cc(F)c3c(c2C)C(=O)CCO3)c1[C@H](OC(C)(C)C)C(=O)O` (atropisomer, axis not shown) [Compound 167], under setting [1], the EC50 turned out to be 39 nM.

Turning to `Cc1cc2nc(-c3cccc(-c4ccc5c(cnn5C)c4)c3)sc2c(-c2cc(F)c3c(c2C)CCCO3)c1[C@H](OC(C)(C)C)C(=O)O` (atropisomer, axis not shown) [Compound 168], the EC50 under setting [1] amounted to 42 nM.

As to `Cc1cc2nc(-c3ccnc(N4CCN(C(C)C)CC4C)n3)sc2c(-c2ccc(Cl)cc2)c1[C@H](OC(C)(C)C)C(=O)O` (stereo in doubt) [Compound 467, (S)-2-tert-butoxy-2-(7-(4-chlorophenyl)-2-(2-((R)-4-isopropyl-2-methylpiperazin-1-yl)pyrimidin-4-yl)-5-methylbenzo[d]thiazol-6-yl)acetic acid], the EC50 (Human immunodeficiency virus 1, IIIB, MT4, 120 h, Table 2) was 5 nM.

As to `COc1cncc(-c2cc(-c3nc4cc(C)c([C@H](OC(C)(C)C)C(=O)O)c(-c5ccc(Cl)cc5)c4s3)ccn2)c1` [Compound 105, (S)-2-tert-butoxy-2-(7-(4-chlorophenyl)-2-(5′-methoxy-2,3′-bipyridin-4-yl)-5-methylbenzo[d]thiazol-6-yl)acetic acid], under setting [1], the EC50 came to 16 nM.

Consider `Cc1cc2nc(-c3cccc(-c4cncnc4)c3)sc2c(-c2ccc(Cl)cc2)c1[C@H](OC(C)(C)C)C(=O)O` [Compound 106, (S)-2-tert-butoxy-2-(7-(4-chlorophenyl)-5-methyl-2-(3-(pyrimidin-5-yl)phenyl)benzo[d]thiazol-6-yl)acetic acid], for which the EC50 under setting [1] was 103 nM.

Take `Cc1cc2nc(-c3ccnc(-c4ccc5cnn(C)c5c4)c3)sc2c(-c2ccc(Cl)cc2)c1[C@H](OC(C)(C)C)C(=O)O` [Compound 108, (S)-2-tert-butoxy-2-(7-(4-chlorophenyl)-5-methyl-2-(2-(1-methyl-1H-indazol-6-yl)pyridin-4-yl)benzo[d]thiazol-6-yl)acetic acid]: the 50% effective concentration (EC50) under setting [1] was found to be 33 nM.

Take `Cc1cc2nc(-c3ccnc(-c4ccc5c(cnn5C)c4)n3)sc2c(-c2ccc(Cl)cc2)c1[C@H](OC(C)(C)C)C(=O)O` [Compound 110, (S)-2-tert-butoxy-2-(7-(4-chlorophenyl)-5-methyl-2-(2-(1-methyl-1H-indazol-5-yl)pyrimidin-4-yl)benzo[d]thiazol-6-yl)acetic acid]: the concentration for a half-maximal effect (EC50) under setting [1] worked out at 14 nM.

On to `Cc1cc2nc(-c3cnc4cnn(C)c4c3)sc2c(-c2ccc(Cl)cc2)c1[C@H](OC(C)(C)C)C(=O)O` [Compound 111, (S)-2-tert-butoxy-2-(7-(4-chlorophenyl)-5-methyl-2-(1-methyl-1H-pyrazolo[4,3-b]pyridin-6-yl)benzo[d]thiazol-6-yl)acetic acid], for which, under setting [1], the EC50 was found to be 8 nM.

With `Cc1cc2nc(-c3cnc4[nH]cc(C)c4c3)sc2c(-c2ccc(Cl)cc2)c1[C@H](OC(C)(C)C)C(=O)O` [Compound 112], the EC50 under setting [1] turned out to be 28 nM.

On to `Cc1cc2nc(-c3ccc4c(cnn4C)c3)sc2c(-c2ccc(Cl)cc2)c1[C@H](OC(C)(C)C)C(=O)O` [Compound 113b, (S)-2-tert-butoxy-2-(7-(4-chlorophenyl)-5-methyl-2-(1-methyl-1H-indazol-5-yl)benzo[d]thiazol-6-yl)acetic acid], for which the EC50 under setting [1] turned out to be 18 nM.

In the case of `Cc1cc2nc(-c3cncc(-c4ccc5c(cnn5C)c4)c3)sc2c(-c2ccc(Cl)cc2)c1[C@H](OC(C)(C)C)C(=O)O` [Compound 114, (S)-2-tert-butoxy-2-(7-(4-chlorophenyl)-5-methyl-2-(5-(1-methyl-1H-indazol-5-yl)pyridin-3-yl)benzo[d]thiazol-6-yl)acetic acid], the EC50 under setting [1] was 13 nM.

Take `Cc1cc2nc(-c3ccnc(-c4ccc5[nH]ncc5c4)c3)sc2c(-c2ccc(Cl)cc2)c1[C@H](OC(C)(C)C)C(=O)O` [Compound 115, (S)-2-(2-(2-(1H-indazol-5-yl)pyridin-4-yl)-7-(4-chlorophenyl)-5-methylbenzo[d]thiazol-6-yl)-2-tert-butoxyacetic acid]: the EC50 under setting [1] is 13 nM.
